According to publication PMC9324199 (Angewandte Chemie (International Ed. in English), 2022):

Molecular target: 5-HT2A (Homo sapiens, UniProt P28223)
Test: PDSP radioligand binding

Sequence of 5-HT2A (P28223 whole entry, species assumed): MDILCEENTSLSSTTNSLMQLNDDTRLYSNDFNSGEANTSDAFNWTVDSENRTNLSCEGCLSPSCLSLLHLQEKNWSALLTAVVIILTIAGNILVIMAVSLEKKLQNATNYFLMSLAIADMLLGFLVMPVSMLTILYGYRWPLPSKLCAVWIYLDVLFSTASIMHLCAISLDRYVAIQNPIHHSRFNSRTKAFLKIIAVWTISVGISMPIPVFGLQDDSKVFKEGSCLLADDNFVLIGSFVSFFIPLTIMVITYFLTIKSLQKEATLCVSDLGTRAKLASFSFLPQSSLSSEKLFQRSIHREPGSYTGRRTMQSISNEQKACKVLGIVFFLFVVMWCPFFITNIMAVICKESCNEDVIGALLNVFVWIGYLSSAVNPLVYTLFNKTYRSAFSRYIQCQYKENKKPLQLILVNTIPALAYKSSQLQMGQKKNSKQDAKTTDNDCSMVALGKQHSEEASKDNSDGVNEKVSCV

COc1ccc(N=Nc2ccc3[nH]cc(CCN(C)C)c3c2)cc1 [2h]
Ki: 225 nM
